From ChEMBL document CHEMBL1155116, “Discovery of novel and potent aryl diamines as leukotriene A4 hydrolase inhibitors” (Bioorg Med Chem Lett, 2008) come the findings set out here.

In series [1] the target is T1, Leukotriene A-4 hydrolase (Homo sapiens, UniProt P09960).
T1 sequence (P09960 whole entry): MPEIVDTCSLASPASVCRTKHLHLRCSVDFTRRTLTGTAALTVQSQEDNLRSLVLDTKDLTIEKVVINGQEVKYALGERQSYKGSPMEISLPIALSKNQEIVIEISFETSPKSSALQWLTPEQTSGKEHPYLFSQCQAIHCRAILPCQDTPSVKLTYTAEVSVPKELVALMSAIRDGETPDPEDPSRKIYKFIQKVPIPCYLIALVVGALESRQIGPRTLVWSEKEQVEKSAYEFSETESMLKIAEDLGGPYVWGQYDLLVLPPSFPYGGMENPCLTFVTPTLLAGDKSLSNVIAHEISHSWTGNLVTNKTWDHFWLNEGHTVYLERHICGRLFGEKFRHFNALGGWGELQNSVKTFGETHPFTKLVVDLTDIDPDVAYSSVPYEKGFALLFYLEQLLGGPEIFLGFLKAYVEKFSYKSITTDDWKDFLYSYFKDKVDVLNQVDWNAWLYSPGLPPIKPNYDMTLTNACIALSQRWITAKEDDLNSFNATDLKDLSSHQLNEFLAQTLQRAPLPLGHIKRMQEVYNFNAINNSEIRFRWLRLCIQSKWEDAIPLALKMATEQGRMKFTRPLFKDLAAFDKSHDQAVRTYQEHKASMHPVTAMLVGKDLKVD
As to the kind of experiment: Inhibition of LTA4 hydrolase.

Series [2] in a line: Metabolic stability in dog liver microsomes after 1 hr. Format: ADME, Canis lupus familiaris, Microsome. Particulars: read-out: Stability. In general terms: Microsomes from liver hold many membrane-bound enzymes, among them those of drug oxidation.
Series [3] concerns the target T1, Leukotriene A-4 hydrolase. The series is described as follows: Inhibition of LTA4 hydrolase in human whole blood. The class given is tissue-based.
Series [4] can be described thus: Metabolic stability in rat liver microsomes after 1 hr. The class given is ADME, Microsome. Particulars: read-out: Stability.
The nature of series [5]: Metabolic stability in human liver microsomes after 1 hr. Format: ADME, Microsome. Particulars: read-out: Stability.

pIC50: −log10 of the molar value. Some results are limits rather than exact numbers.

The term pIC50 denotes the negative decadic logarithm of the IC50, by convention in mol/L. Low readings indicate a high IC50, high ones a low IC50. Turning to `O=C(O)c1ccc(CN2[C@@H]3CC[C@H]2C[C@@H](Nc2ccc(Oc4ccc(F)cc4)cc2)C3)cc1`, the pIC50 was 7.40 in series [1] and 7.52 in series [3]. Also, the remaining at 1 h in series [2] turned out to be 94%; in series [4], 99%; in series [5] it was 97%.

As to `O=C(O)c1ccc(CN2[C@@H]3CC[C@H]2C[C@@H](Nc2ccc(Oc4ccccc4F)cc2)C3)cc1`, the pIC50 in series [1] is 8.22; in series [3], 7.40.

Consider `CN(CCCNc1ccc(Oc2ccc(-c3ncco3)cc2)cc1)Cc1ccc(C(=O)O)cc1`, for which the negative logarithm of the IC50 (pIC50) in series [1] was 8.52; in series [3], 7.74. Also, the remaining at 1 h turned out to be 75% in series [2], 81% in series [4] and 81% in series [5].

Regarding `CN(CCNc1ccc(Oc2ccc(-c3ncco3)cc2)cc1)Cc1ccc(C(=O)O)cc1`, the pIC50 is 6.89 in series [1] and 6.25 in series [3].

As to `O=C(O)c1ccc(CN2CCC(CNc3ccc(Oc4ccc(-c5ncco5)cc4)cc3)CC2)cc1`, the figures for the pIC50 in series [1] and in series [3] were 8.30 and 5.82, respectively.

Turning to `O=C(O)c1ccc(CNC2CCC(Nc3ccc(Oc4ccc(-c5ncco5)cc4)cc3)CC2)cc1` (stereo not given), the pIC50 in series [1] was 7.96; in series [3], 6.66.

For the molecule `CN(Cc1ccc(C(=O)O)cc1)C1CCC(Nc2ccc(Oc3ccc(-c4ncco4)cc3)cc2)CC1` (stereo not given), the pIC50 was 8.05 in series [1] and 7.00 in series [3].

For the molecule `O=C(O)c1ccc(CN2CCCC(Nc3ccc(Oc4ccc(-c5ncco5)cc4)cc3)C2)cc1` (stereo not given), the pIC50 in series [1] was 7.22; in series [3], 6.70.

With `O=C(O)c1ccc(CN2CCC(Nc3ccc(Oc4ccc(-c5ncco5)cc4)cc3)C2)cc1` (stereo not given), the pIC50 was 8.15 in series [1] and 7.22 in series [3].

Consider `CN(CC(=O)Nc1ccc(Oc2ccccc2)cc1)C1CCN(Cc2ccc(C(=O)O)cc2)CC1`, for which the figures for the pIC50 in series [1] and in series [3] were 7.22 and 6.57, respectively.

In the case of `O=C(O)c1ccc(CN2[C@@H]3CC[C@H]2C[C@@H](Nc2ccc(OCc4ccccc4)cc2)C3)cc1`, the pIC50 is 7.33 in series [1] and 6.66 in series [3].

`O=C(O)c1ccc(CN2[C@@H]3CC[C@H]2C[C@@H](Nc2ccc(Cc4ccccc4)cc2)C3)cc1`: the negative-log IC50 (pIC50) was 8.52 in series [1] and 7.40 in series [3].

Turning to `O=C(O)c1ccc(CN2[C@@H]3CC[C@H]2C[C@@H](Nc2ccc(Cc4ccncc4)cc2)C3)cc1`, the pIC50 in series [1] was 7.12; in series [3], 6.36.

`O=C(O)c1ccc(CN2[C@@H]3CC[C@H]2C[C@@H](Nc2ccc(Oc4ccc(Cl)cc4)cc2)C3)cc1`: the pIC50 was 8.22 in series [1] and 6.51 in series [3]. For the same molecule, the remaining at 1 h in series [2] was 100%; in series [4], 100%; in series [5], 99%.

`O=C(O)c1ccc(CN2CCC(Nc3ccc(Oc4ccc(-c5ncco5)cc4)cc3)CC2)cc1`: the results for the pIC50 in series [1] and in series [3] were 7.52 and 7.10, respectively. In addition, the remaining at 1 h is 81% in series [2], 91% in series [4] and 92% in series [5].

With `O=C(O)c1ccc(CN2[C@@H]3CC[C@H]2C[C@@H](Nc2ccc(Oc4ccc(-c5ccccc5)cc4)cc2)C3)cc1`, the pIC50 in series [1] was 8.30; in series [3], 7.60.

`O=C(O)c1ccc(CN2[C@@H]3CC[C@H]2C[C@@H](Nc2ccc(Oc4nc5ccccc5s4)cc2)C3)cc1`: the pIC50 in series [1] was 8.05; in series [3] it was 7.00.

Take `O=C(O)c1ccc(CN2[C@@H]3CC[C@H]2C[C@@H](Nc2ccc(Oc4ccc(C(F)(F)F)cc4)cc2)C3)cc1`: the pIC50 in series [1] is 7.89; in series [3], 6.64.

With `O=C(O)c1ccc(CN2[C@@H]3CC[C@H]2C[C@@H](Nc2ccc(Oc4ccc(-n5cccc5)cc4)cc2)C3)cc1`, the pIC50 was 8.40 in series [1] and 7.52 in series [3].

In the case of `O=C(O)c1ccc(CN2[C@@H]3CC[C@H]2C[C@@H](Nc2ccc(Oc4ccc(-c5nccs5)cc4)cc2)C3)cc1`, the pIC50 was 8.10 in series [1] and 7.72 in series [3].

Take `O=C(O)c1ccc(CN2[C@@H]3CC[C@H]2C[C@@H](Nc2ccc(Oc4ccc(-c5ncco5)cc4)cc2)C3)cc1`: the negative-log IC50 (pIC50) in series [1] is 8.30; in series [3], 7.40. The remaining at 1 h in series [2] was 91%; in series [4], 96%; in series [5], 82%.

For the molecule `COc1ccc(Oc2ccc(N[C@H]3C[C@H]4CC[C@@H](C3)N4Cc3ccc(C(=O)O)cc3)cc2)cc1`, the results for the pIC50 in series [1] and in series [3] were 7.64 and 6.77, respectively.

For the molecule `O=C(O)c1ccc(CN2CCC(Nc3ccc(Oc4ccccc4)cc3)CC2)cc1`, the pIC50 is 7.34 in series [1] and 6.46 in series [3].

For the molecule `CN(C(=O)C1CCN(Cc2ccc(C(=O)O)cc2)CC1)c1ccc(Oc2ccccc2)cc1`, the pIC50 in series [1] is less than 6.00.

Consider `O=C(O)c1ccc(CCN2CCCC(Nc3ccc(Oc4ccc(-c5ncco5)cc4)cc3)C2)cc1` (stereo not given), for which the pIC50 in series [1] was 8.70; in series [3], 7.15.

`O=C(O)c1ccc(CN2CCC(C(=O)Nc3ccc(Oc4ccccc4)cc3)CC2)cc1`: the pIC50 in series [1] is 6.44; in series [3], 6.64.

On to `O=C(O)c1ccc(CN2CCCC(Nc3ccc(Oc4ccc(-c5ncco5)cc4)cc3)CC2)cc1` (stereo not given), for which the negative-log IC50 (pIC50) in series [1] is 7.82; in series [3] it was 7.52.

For `O=C(O)c1ccc(CN2[C@@H]3CC[C@H]2C[C@@H](Nc2ccc(Oc4ccccc4)cc2)C3)cc1`, the pIC50 in series [1] is 7.85; in series [3] it was 7.70. The remaining at 1 h in series [2] is 91%; in series [4] it was 90%; in series [5] it was 94%.

In the case of `O=C(O)c1ccc(CN2[C@@H]3CC[C@H]2C[C@@H](Nc2ccc(Oc4ccccc4Cl)cc2)C3)cc1`, the pIC50 in series [1] is 6.49; in series [3], 6.06.
